From EP1369114A1, “Use of tryptophan metabolites as pharmaceutical agents” (Terness, Peter, Priv. Doz. Dr., priority 2002, dated 2003)

Columns and labels:
[1] = tested on: T cells activated with allogeneic dendritic cells; assay: Allogeneic restimulation, with donor-specific or third-party DCs, of T cells activated with allogeneic DCs; assay type: cell-based, human; design: restimulation with donor-specific DCs: dose or concentration left out as unconfirmed
Description: • (a) Allogeneic T-cell response. DCs were infected with recombinant IDO-adeno-GFP (DC-IDO-GFP), IDO-adeno (DC-IDO) or with control adenoviruses (DC-adeno) at a MOI (multiplicity of infection) up to 500 for 2 days. Lymphocytes (PBMCs) were separated from peripheral blood of healthy donors by density gradient centrifugation and typed for HLA antigens. Only HLA-DR-different responder lymphocytes were used for DC-induced stimulation. Native DCs only, lymphocytes only, native DCs + allogeneic lymphocytes, DC-IDO-GFP + allogeneic lymphoytes, DC-IDO + allogeneic lymphoytes, DC-adeno + allogeneic lymphocytes (each time 10^5 DC + 10^5 lymphocytes in 0.2ml medium) were cultured in RPMI 1640 medium (Gibco BRL Life Technologies GmbH, Eggenstein, Germany) with 10% fetal calf serum (FCS) (final tryptophan concentration 5.25 mg/l = 25.69 uM) and Penicillin G/Streptomycin. After 5 days, ^3[H]-thymidin was added for 12hrs and the number of counts (counts per minute = cpm) determined in a (3-counter (Inotech Biosystems, Lansing, MI). In order to verify whether IDO expression or adenovirus infection harm the DCs, 10^5 cells were infected with IDO-adeno-GFP, IDO-adenovirus, or adenovirus only at a stepwise decreasing MOI (500, 250, 125, ........ 3.9) and cell viability was measured in FACS following double staining with 7-AAD and anti-CD83 antibody-PE. The percentage of dead cells never exceeded 30% for any MOI following IDO-adeno-GFP- or IDO-adeno-infection and 40% following adenovirus(control)-infection. Moreover, these values were not higher than those of native DCs cultured for the same period of time. […] After 2 days, cell proliferation was assessed by measuring ^3[H]-thymidin incorporation (cpm) as described. • (c) Tryptophan metabolite titration curves. […] After 2 days, ^3[H] thymidin was added and the number of counts recorded. […] After another 2 days, ^3[H] thymidin was added and cpm determined. […] 3[H] thymidin was added to all cultures and the number of counts (cpm) determined. • (e) Tryptophan titration curve. […]

T cells = assay: Detection of cell death: 7-AAD staining of anti-CD3 stimulated lymphocytes, FACScan; assay type: cell-based, human; conditions: anti-CD3, 3 days; 1501 µM kynurenine, 349µM 3-hydroxykynurenine, 510µM 3-hydroxyanthranilic acid, mixture 64 µM of each compound
Protocol: Lymphocytes were stimulated in culture with anti-CD3 monoclonal antibody (s. above) in the presence or absence (control) of kynurenine (1501µM), 3-hydroxyanthranilic acid (510µM), 3-hydroxykynurenine (348µM), or metabolite mixture (64µM kynurenine + 64µM 3-hydroxykynurenine + 64µM anthranilic acid + 64µM 3-hydroxyanthranilic acid + […] quinolinic acid). After 3 days the cells were washed and resuspended in PBS (10^6/ml). Thereafter, the cells (100µ1 suspension) were labeled with anti-CD3-FITC antibody (3 µl), stained with 7-AAD (5µl) for 15 min, and the percentage of 7-AAD-positive (dead) T cells was determined in a FACScan. In an other experiment T cells, B cells, NK-cells, or DCs were separated from PBMCs by magnetic beads or generated as described, and cultured (5x10^5 cells/ml) with a mixture of kynurenine metabolites (kynurenine + 3-hydroxykynurenine + anthranilic acid + 3-hydroxyanthranilic acid + quinolinic acid)(8, 16, or 32µM respectively for each compound). In one setting T cells were activated with anti-CD3 antibody. Cell death was measured daily for 5 days by 7-AAD staining and expressed in percentage of dead cells.

## Nc1ccccc1C(=O)CC(N)C(=O)O (stereo not shown) [kynurenine]
[1]; extremely high doses (1500µM or 750µM) of kynurenine
  restimulation with third-party DCs: only minimal reactions
[1]; kynurenine in primary stimulation, 5 days, washed
  restimulation with donor-specific DCs: cannot be restimulated with DCs from the same donor
[1]; medium or low doses (375µM - 47µM) of kynurenine
  restimulation with third-party DCs: significant restimulation
T cells
  dead (7-AAD-positive) T cells (in words): virtually all cells died
